From patent US11447533B2, “Antimicrobial and anticancer peptides and conjugates and compositions, methods, articles and kits relating thereto” (George Mason Research Foundation, Inc., priority 2018, dated 2022)

Key:
[1] = Endotoxin binding: competitive displacement of BODIPY TR-Cadaverine from LTA; set-up: species or system Staphylococcus aureus; conditions: 5 μM peptide, 10 μM BC, 10 μg/mL LTA, 10 mM Na-PO4
Description: (§1) FIGS. 2A-2B are graphs showing endotoxin binding. The figures depict the competitive displacement of BC from LPS/LTA by the peptides. 5 μM of each peptide was incubated with 10 μM BC and 10 μg/mL LPS from E. coli (0111:B4) or LTA from S. aureus. Fluorescence intensity was measured at excitation=580 nm and emission=620 nm. 10 μM BC without endotoxin was used as 100% displacement while 10 μM BC with 10 μg/mL LPS/LTA without any peptide as 0% displacement and the % displacement of BC by each peptide was calculated accordingly. […] had been used as a positive control. The horizontal dotted line coincides with the % displacement of BC by ATRA1 on the y-axis.
(§2) FIGS. 6A-6B are graphs showing endotoxin (LPS (FIG. 6A) and LTA (FIG. 6B)) binding. Competitive displacement of BC from LPS/LTA. In each case, 5 μM peptide was incubated with 10 μM BC and 10 μg/mL LPS from E. coli (0111:B4) or LTA from S. aureus. Fluorescence intensity was measured using excitation=580 nm and emission=620 nm. As a positive control 10 μM BC without endotoxin was used as a reference for 100% displacement while 10 μM BC with 10 μg/mL LPS/LTA without any peptide as a negative control and a reference for 0% displacement. These controls were used to calculate % BC displacement for each peptide.
(§3) Endotoxin Binding. The binding of endotoxin (LPS/LTA) was evaluated using a fluorogenic conjugateBODIPY TR-Cadaverine (BC). BC binds endotoxin loses its fluorescence. The peptide competitively displaces BC from endotoxin and the fluorescence is reestablished. Competitive inhibition of endotoxin-BC binding was utilized due to presence of peptides already in complexion with endotoxin. 25 μL of 20 μM of peptides in 10 mM Na—PO4 buffer were incubated with 25 μL of LPS (40 μg/mL) or LTA (40 μg/mL) for 15 min and then added with 50 μL of BC (20 uM). Peptides bind to LPS or LTA and competitively prevents BC bind to the endotoxin. BC loses its fluorescence on binding to endotoxin. The fluorescence intensity of the unbound BC was measured at excitation=580 nm and emission=620 nm.
(§4) BC contains two functional moieties: BODIPY (boron-dipyrromethene) and cadaverine connected via a carboxamide. BODIPY is the fluorophore of BC and fluoresces in the free state in solution but loses fluorescence when bound to LPS/LTA. The competitive displacement of BC from LPS/LTA by AMPs and thus regeneration of the fluorescence has frequently been used to estimate the binding strength of AMPs with LPS/LTA. In the present studies, 5 μM of each peptide was used to displace BC from LPS/LTA. […] Such observation contradicts the initial assumption that substitution of Lys with arginine would result in increased efficiency of LPS binding. However, with sequential substitutions of Lys with arginine, starting with ATRA1-AR, peptide variants show increased LPS binding with each additional arginine substitution. In terms of LPS binding: ATRA1-AR<ATRA1-AR2<ATRA1-AR3. In ATRA1-R3, the lysine residues at 9th, 5th and 1st positions of ATRA1 were substituted with arginine. In ATRA1-R6 all of the lysine residues were replaced with arginine.

[2] = Endotoxin binding: competitive displacement of BODIPY TR-Cadaverine from LPS; set-up: species or system Escherichia coli; conditions: 5 μM peptide, 10 μM BC, 10 μg/mL LPS, low ionic-strength 10 mM Na-PO4
Description: as §1, §2, §3, §4

[3] = test system: E. coli ATCC 25922; assay: Antimicrobial efficacy (resazurin virtual colony count); format: cell-based, Escherichia coli; conditions: pH 7.4
Description: (§5) Antimicrobial Studies. The phosphate buffers used for antimicrobial assays were supplemented with non-nitrogenous energy source, 0.1% (w/v) glucose. To conduct antimicrobial assays, bacterial strains were first suspended in respective buffers. E. coli (ATCC 25922) and B. cereus (ATCC 11778) were grown in MHB II up to OD600 nm˜1 and stored as frozen stock in 20% glycerol at −80° C. Occasionally they were thawed and enumerated by serial dilution and spreading on MHB II agar plates. The concentrations of the frozen stocks of E. coli and B. cereus strains were 1.0-1.1*10^8 CFU/mL with OD600 nm˜0.8. In case of other bacterial strains, they were grown on the days of experiment up to OD600 nm˜1-1.5 and then adjusted to OD600 nm˜0.8. The growth media of the drug-resistant bacterial strains were supplemented with few of the respective antibiotics against which they are resistant. 200 μL of the 0.8 OD600 nm culture were added to 10 mL of the respective buffer to obtain a suspension which was used to incubate with equal volumes of peptide solution in the same buffer.
(§6) Antimicrobial assays in different phosphate buffers and serum were conducted by adapting, with necessary modifications a fast high-throughput method based on Virtual Colony Count technique and later modified by incorporating the use of resazurin. At first serial dilution of a microbial strain in respective buffer was poured in the wells of 96 well polypropylene microplate and was then added with same volume of 2× MHB II supplemented with 80 μg/mL resazurin and incubated at 35° C. in a Gemini EM Microplate Reader (Molecular Devices) overnight with intermittent shaking. As the microbe grows it reduces non-fluorescent resazurin to fluorescent resorufin and the fluorescent intensity of each well were measured (excitation=570 nm, emission=590 nm) each 5 min for 15 hours. The time (t, min) to reach a certain fluorescence (RFU=20000 with respect to the starting fluorescence) was correlated with the initial bacterial concentration (in CFU/mL) in the particular well to obtain a calibration plot of the form: Log([Bacteria],CFU/mL)=b+m*t Equation 4: […]
To obtain antimicrobial efficacy of the peptides, 50 μL of serially diluted peptide in a buffer was incubated with 50 μL microbial suspension in the same buffer for 3 hours in black polypropylene 96 well plate. After incubation the wells were added with 100 μL of 2× MHB II supplemented with 80 μg/mL resazurin and then incubated with continuous fluorescence reading for overnight time period as described earlier. The surviving microbial population (CFU/mL) in each well were calculated by first finding the time to reach a fluorescence of RFU=20000 and the correlation (4) for the specific microbial strain and buffer. % Survival represents the proportion of viable cells in peptide treated cells relative to cells treated with the respective buffer alone. Equation 5: […]
Finally, the antimicrobial effectiveness of each peptide against the particular microbial strain in the specific buffer was determined by plotting % microbial survival as a function of the log of the concentration of the peptide and fitting the resulting data to a variable-slope sigmoidal regression model (equation 6). In this equation, log(EC50) represents the log of the concentration of the peptide required to kill half of the microbial population, where Smin and Smax correspond to the minimal and maximal microbial survival values (respectively), and H, Hill slope, is the parameter defining the steepness of the transition slopes of sigmoidal survival curves. % Microbial survival=Smin+(Smax−Smin)/(1+10^log(EC^50^)-log[peptide]*H) Equation 6: […]
The antimicrobial efficacies of the peptides were first tested against the model Gram-negative bacteria, E. coli ATCC 25922, in different phosphate buffers having varied ionic strengths and compositions. The phosphate buffers that were used included 10 mM sodium phosphate (calculated ionic strength˜25 mM), PBS and DPBS. […]

[4] = test system: E. coli ML35p outer membrane; assay: NPN assay, outer membrane perturbation; format: cell-based, Escherichia coli; conditions: PBS; 25 μM peptide; 25 μM PMB = 100%
Description: (§7) Interactions with Bacterial Membranes. Interaction of the peptides with bacterial membranes in different phosphate buffers were evaluated using E. coli ML35p, constructed in our laboratory. At first, competent cells of E. coli ML35 were produced by conventional competent cell preparation method, then transformed with pBR322 plasmid. Transformed colonies were selected after growing on Luria-agar containing 50 μg/mL ampicillin. A single transformed colony was grown in presence of ampicillin first in Luria broth and then in MHBII and stored as 20% glycerol stock at −80° C. This frozen stock, on the day of the experiment, was thawed and grown in MHBII containing ampicillin up to OD600 nm=0.8-0.9, washed with PBS and then suspended in the respective buffer up to the required OD600 nm for use.
NPN Assay. The outer membrane perturbation of bacteria was evaluated by incubating E. coli ML35p with peptides in presence of NPN. 100 mM NPN in acetone was supplemented proportionately to a bacterial suspension of OD600 nm˜0.5 to achieve a final concentration of 20 μM of NPN and the mixture was equilibrated for 30 mins. Then, 90 μL of the bacterial suspension containing 20 μM NPN was added with 10 μL of 250 μM peptide (10×) solution in water and scanned for fluorescence intensity (excitation=350 nm, emission=420 nm). The % Perturbation was calculated by considering PMB to be causing 100% Perturbation and water (without peptide) as 0% Perturbation. Each peptide was tested in triplicate in each of the three phosphate buffers used.
When peptides partition from the bulk aqueous environment to the cellular membranes, they may cause small defects in the membrane organization, a signature of adsorption of the peptides into the membranes. Such small defects are called membrane perturbations and can be evaluated by utilizing molecular probes. One such molecular probe is NPN, which is a hydrophobic molecule and is usually repelled to enter the hydrophobic interiors of the membrane by the polar headgroups of membrane-lipids. However, when small defects and gaps are caused during the adsorption of the peptides into the membranes, NPN can enter through those defects and in the hydrophobic environment of the membrane interior the molecule fluoresces, which can be measured for quantification of the extent of membrane-perturbation and peptide adsorption in the cellular membrane.

[5] = test system: B. cereus ATCC 11778; assay: Antimicrobial efficacy (resazurin virtual colony count); format: cell-based, Bacillus cereus; conditions: DPBS
Description: as §5, with “200 μL of the 0.8 OD600 nm culture were added to 10 mL of the respective buffer to obtain a suspension which was used to incubate with equal volumes of peptide solution in the same buffer.” left out
as §6

[6] = test system: E. coli ML35p outer membrane; assay: Outer membrane disruption (β-lactamase leakage, nitrocefin); format: cell-based, Escherichia coli; conditions: DPBS; HCMAB = 100%
Description: as §7
Membrane Disruptions. The outer and the inner membrane disruptions by the peptides were evaluated by incubating bacterial suspension with peptides and then measuring the activity of enzymes leaked out of the cells. 100 μL of 10× concentration of peptide in water was incubated with 900 μL bacterial suspension (OD600 nm˜0.1) in respective buffer for 3 hours at room temperature with gentle rotation. Then the cells and debris were separated by centrifugation (10000 r.p.m. for 30 mins) and the supernatant was collected and tested for activity of enzymes that had leaked out of the bacterial cells. HCMAB was used as a positive control to cause 100% membrane disruption and water as a negative causing 0% disruption.
The outer membrane disruption was tested by using the activity of beta-lactamase present in the periplasmic space of E. coli ML35p. Peptides when disrupt the outer membrane enough to cause beta-lactamase to come out, the degree of disruption can be measured by the virtue of the kinetics of the enzyme and using a chromogenic cephalosporin substrate called nitrocefin. β-lactamase mediated hydrolyzed product of nitrocefin has an absorbance αmax=486 nm. Supernatant collected from the incubation of peptide with bacteria was added with nitrocefin solution in DPBS and incubated at 35° C. and continuous absorbance readings. The slope of the linear section of the absorbance curve (absorbance vs time), was used as a measure of membrane disruption and the % Disruption was calculated as: Equation 7: […]
Some of the ATRA1-variants were further tested for their ability to disrupt outer and inner membranes to form pores or disruptions sufficiently large so as to allow enzymes to leak out of their cellular compartments (cytoplasm or periplasmic space). For this purpose, two reporter molecules were used with one being the substrate of a cytoplasmic enzyme and the other was a substrate for an enzyme residing in the periplasmic space. One of the reporters, nitrocefin was the substrate for β-lactamase, which is present in the bacterial periplasm, whereas the other molecule, ONPG, was the substrate for β-galactosidase, which resides in the cytoplasm of E. coli ML35p strain. […] Similarly, β-galactosidase activity in the supernatants is evidence of inner membrane disruption and possible pore formation. When the aforesaid supernatants were tested for nitrocefin and ONPG hydrolysis, the corresponding absorbance increased with time (data not shown) indicating β-lactamase and β-galactosidase activity, respectively, and thus disruption of both the inner and outer membranes. The slopes of the increase in absorbance as a function of time provides the rate of enzyme activity. The enzyme activities in supernatants collected after incubation of bacteria with the quaternary ammonium surfactant, hexadecyltrimethylammonium bromide (HCMAB) was used as an internal reference for 100% membrane disruption. Enzyme activity for supernatants collected for cells incubated in the absence of peptide provided a reference for 0% membrane disruption. Bee venom peptide melittin was used as a positive control. […]

[7] = PBS (high / physiologically relevant ionic strength)

Row | Sequence | LTA binding (BC displacement), in words [1] | LPS binding (BC displacement), in words [2] | antimicrobial efficacy, in words [3, 7] | membrane perturbation with respect to PMB [4] | antimicrobial efficacy, in words [5] | outer membrane disruption (β-lactamase activity) relative to HCMAB [6] | antimicrobial efficacy, in words ([3]; DPBS (with Ca++ and Mg++))
1 | KKAKKFFKKLK (SEQ ID NO: 5) [ATRA1-AK] | highest LTA binding | highest LPS binding among all the peptides | lost activity in PBS |  |  |  | 
2 | KRFKKFFKKFK (SEQ ID NO: 11) [ATRA1-F] |  |  | more effective than ATRA1 | decreased slightly | somewhat effective | intermediate | lost activity in DPBS
